Data set [1] concerns the target T1, adenosine deaminase (ADA) (Homo sapiens, UniProt P00813).
T1 sequence (P00813 1-363): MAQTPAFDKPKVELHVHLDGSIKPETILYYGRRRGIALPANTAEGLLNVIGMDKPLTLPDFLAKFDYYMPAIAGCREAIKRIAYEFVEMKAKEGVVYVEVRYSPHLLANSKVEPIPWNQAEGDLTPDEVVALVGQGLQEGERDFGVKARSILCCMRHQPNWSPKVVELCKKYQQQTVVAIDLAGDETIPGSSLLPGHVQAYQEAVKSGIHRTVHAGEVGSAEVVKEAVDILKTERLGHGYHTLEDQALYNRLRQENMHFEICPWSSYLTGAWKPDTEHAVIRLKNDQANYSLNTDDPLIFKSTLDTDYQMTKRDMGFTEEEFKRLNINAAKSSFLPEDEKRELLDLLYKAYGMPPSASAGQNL
Conditions: 0.5 mM, pH 7.5. As for the experimental part: Adenosine has been confirmed to be promptly hydrolyzed into inosine and hypoxanthine by adenosine deaminase (ADA) intrinsically present in living bodies. To examine the possibility of sustainably exerting effects by glucosyladenosines as adenosine glycosides, a test for confirming whether 5′- and 3′-glucosyladenosines are hydrolyzed in living bodies was conducted using a cell lysate of a normal human fetal fibroblast as a source for an adenosine metabolism-relatedenzyme. “NHDF cells”, a normal human fetal fibroblast, commercialized by Kurabo Industries, Osaka, Japan (called “NHDF cells”, hereinafter), which had been diluted with “Dulbecco's Modified Eagle Medium “Nissui” (abbreviated as […], hereinafter), a product name of a Dulbecco's Medium Essential Medium, commercialized by Nissui Pharmaceutical Co., Ltd., Tokyo, Japan, containing 10 v/v % fetal calf serum […] (called “FCS”, hereinafter) was inoculated to 150 cm^2 culture flasks (commercialized by Corning, N.Y., USA) in a cell amount of 1.5×10^6 cells/20 ml/flask, and cultured for four days. After removing each culture supernatant, the resulting cells were treated with “Trypsin-EDTA”, a product name of 0.05% by mass of trypsin/EDTA solution, commercialized by Gibco, NY., USA, followed by collecting the cell suspensions from each flask. […] CELL DISROPTOR 185” thrice (30 sec×twice for each) for cell disruption, centrifuged at 15,000 rpm for five minutes to collect supernatants as a cell lysate. 0.9 ml of the cell lysate and 0.1 ml of phosphate buffered saline (PBS), which had been prepared by dissolving either the 5′-glucosyladenosine that had had been prepared in Experiment 1-2 or the 3′-glucosyladenosine that had had been prepared in Experiment 2 to give a concentration of 5 mM, were mixed, stirred, and allowed to react at 37° C. Reaction solutions at reaction times 0, 1, 7 and 24 hours after initiating the reaction were collected, treated with the same method as in Experiment 3, and quantified for adenosine and glucosyladenosines by an HPLC method. Relative values for concentrations of these compounds at respective reaction times were calculated when the concentration at the reaction initiation for each compound was regarded as 100%, and they are shown in Table 3 as residual percentages of adenosine or glucosyladenosines.

Data set [2] concerns three-dimensional skin model (EPI-200 Kit). As to the kind of experiment: Cytotoxicity: LDH release from three-dimensional skin model. Type of data set: cell-based. Conditions: 18 hours, control = 1.0. On the procedure: To examine whether glucosyladenosines are successively applied to the skin as ingredients for sustainable external dermal agents, they were examined for cytotoxicity. The strengths of cytotoxicity of glucosyladenosines were examined with an index of […] (LDH) that is released when cell are damaged, as an influence of glucosyladenosines and adenosine on three dimensional skin. […] A system, to which 30% ethanol with no glucosyladenosines and adenosine was added, was provided as a control. For the collected media, the activity of […] (LDH) released from each skin model was assayed on “CYTOTOXICITY DETECTION KIT (LDH)”, a product name of Hoffmann-La Roche Ltd., Basel, Switzerland, and calibrated for obtaining a relative LDH activity by regarding the LDH activity of the control as 1.0 in order to evaluate the cytotoxicity for each sample.
(In general: LDH in the medium is a marker of cell lysis.)

Molecules are shown by their SMILES. Where two headings read alike, the source gives them in different places.

For the compound `Nc1ncnc2c1ncn2[C@@H]1O[C@H](CO)[C@@H](O[C@H]2O[C@H](CO)[C@@H](O)[C@H](O)[C@H]2O)[C@H]1O` [3′-Glucosyladenosine, α-D-glucopyranosyl-(1→3′)-adenosine], the Remaining percentage in data set [1] (0 h) stood at 100%; in data set [1] (1 h), 95%; in data set [1] (7 h), 86%; in data set [1] (24 h), 17%. Besides, in data set [2] (concentration 5%), the “Relative LDH activity” value amounted to 0.99.

As for `Nc1ncnc2c1ncn2[C@@H]1O[C@H](CO[C@H]2O[C@H](CO)[C@@H](O)[C@H](O)[C@H]2O)[C@@H](O)[C@H]1O` [5′-Glucosyladenosine, α-D-glucopyranosyl-(1→5′)-adenosine], the Remaining percentage is reported as 100% in data set [1] (0 h), 101% in data set [1] (1 h), 100% in data set [1] (7 h) and 96% in data set [1] (24 h). In addition, the “Relative LDH activity” value in data set [2] (concentration 5%) was found to be 0.79.

On to `Nc1ncnc2c1ncn2[C@@H]1O[C@H](CO)[C@@H](O)[C@H]1O` [Adenosine, reference compound], for which the Remaining percentage in data set [1] (0 h) was found to be 100%; in data set [1] (1 h), 53%; in data set [1] (7 h) it was 0%; in data set [1] (24 h) it was 0%. Also, the “Relative LDH activity” value is reported as 1.38 in data set [2] (concentration 0.1%) and 3.68 in data set [2] (concentration 1%).
